Values quoted from earlier work, collected in patent US20090017243A1, “Conveyor lubricant, passivation of a thermoplastic container to stress cracking and thermoplastic stress crack inhibitor” (Ecolab Inc., priority 1999, published 2009).

Conditions: 96 wt. % solution of glycerol in water

SMILES: OCC(O)CO [glycerol]
- specific gravity: 1.25
